Measurements taken from EP0745599A2, “1-(3-Heterocyclylphenyl)-s-triazine-2,4,6-oxo or thiotrione herbicidal agents” (American Cyanamid Company, priority 1995, dated 1996).

Legend:
Type in all cases: in vivo
Settings in all cases: rated four to five weeks after treatment
CASSIA OBTUSIFOLIA, L. [1] = assay: Preemergence herbicidal evaluation, CASOB (Sicklepod); design: key to CASOB: visual rating scale 0-9 vs control
Outline: (§1)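 Compound applied preemergence at about 0.125 to 0.50 kg per hectare as an aqueous acetone spray; response scored visually on a 0-9 scale after four to five weeks.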

CHENOPODIUM ALBUM, L. = assay: Preemergence herbicidal evaluation, CHEAL (Lambsquarters, Common); design: key to CHEAL: visual rating scale 0-9 vs control
Outline: as §1

[2] = tested on: ECHINOCHLOA CRUS-GALLI, (L) BEAU; assay: Preemergence herbicidal evaluation, ECHCG (Barnyardgrass); design: key to ECHCG: visual rating scale 0-9 vs control
Outline: as §1

[3] = tested on: SETARIA VIRIDIS, (L) BEAU; assay: Preemergence herbicidal evaluation, SETVI (Foxtail, Green); design: key to SETVI: visual rating scale 0-9 vs control
Outline: as §1

[4] = tested on: ORYZA SATIVA, L. TEBONNET; assay: Preemergence herbicidal evaluation, ORYSAT (Rice, Tebonnet); design: key to ORYSAT: visual rating scale 0-9 vs control
Outline: as §1

[5] = tested on: ECHINOCHLOA CRUS-GALLI, (L) BEAU; assay: Postemergence herbicidal evaluation, ECHCG (Barnyardgrass)
Outline: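 Visual 0–9 ratings against untreated control, taken four to five weeks post-spray, score stand, vigor, malformation, size, chlorosis and overall appearance. Treatment was a postemergence spray at about 0.125 to 0.500 kg/ha on roughly two-week-old seedlings.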

IPOMOEA SPP. = assay: Preemergence herbicidal evaluation, IPOSS (Morningglory Spp.); design: key to IPOSS: visual rating scale 0-9 vs control
Outline: as §1

[6] = tested on: TRITICUM AESTIVUM, CV. APOLLO; assay: Preemergence herbicidal evaluation, TRZAWO (Wheat, Winter, CV. APOLLO); design: key to TRZAWO: visual rating scale 0-9 vs control
Outline: as §1

[7] = tested on: TRITICUM AESTIVUM, CV. APOLLO; assay: Postemergence herbicidal evaluation, TRZAWO (Wheat, Winter, CV. APOLLO)
Protocol: (§2) In the tests, seedling plants are grown in jiffy flats for about two weeks. The test compounds are dispersed in 50/50 acetone/water mixtures containing 0.5% TWEEN®20, a polyoxyethylene sorbitan monolaurate surfactant of Atlas Chemical Industries, in sufficient quantities to provide the equivalent of about 0.125 kg to 0.500 kg per hectare of active compound when applied to the plants through a spray nozzle operating at 40 psi for a predetermined time. After spraying, the plants are placed on greenhouse benches and are cared for in the usual manner, commensurate with conventional greenhouse practices. From four to five weeks after treatment, the seedling plants are examined and rated according to the rating system set forth below. Where more than one test is involved for a given compound, the data are averaged.
(§3) Results of herbicide evaluation are expressed on a rating scale (0-9). The scale is based upon a visual observation of plant stand, vigor, malformation, size, chlorosis and overall plant appearance as compared with a control.

[8] = tested on: GLYCINE MAX(L)MERR. CV. WILLIAMS; assay: Preemergence herbicidal evaluation, GLXMAW (Soybean, Williams); design: key to GLXMAW: visual rating scale 0-9 vs control
Outline: as §1

[9] = tested on: SETARIA VIRIDIS, (L) BEAU; assay: Postemergence herbicidal evaluation, SETVI (Foxtail, Green)
Protocol: as §2, §3

GALIUM APARINE = assay: Preemergence herbicidal evaluation, GALAP (Galium); design: key to GALAP: visual rating scale 0-9 vs control
Outline: as §1

[10] = tested on: ABUTILON THEOPHRASTI, MEDIC.; assay: Preemergence herbicidal evaluation, ABUTH (Velvetleaf); design: key to ABUTH: visual rating scale 0-9 vs control
Outline: as §1

[11] = tested on: AMBROSIA ARTEMISIIFOLIA, L.; assay: Preemergence herbicidal evaluation, AMBEL (Ragweed, Common); design: key to AMBEL: visual rating scale 0-9 vs control
Outline: as §1

ZEA MAYS L. = assay: Preemergence herbicidal evaluation, ZEAMX (Corn, Field); design: key to ZEAMX: visual rating scale 0-9 vs control
Outline: as §1

CASSIA OBTUSIFOLIA, L. [12] = assay: Postemergence herbicidal evaluation, CASOB (Sicklepod)
Protocol: as §2, §3

[13] = tested on: ORYZA SATIVA, L. TEBONNET; assay: Postemergence herbicidal evaluation, ORYSAT (Rice, Tebonnet)
Protocol: as §2, §3

## CC(C)OC(=O)Cn1c(=O)n(C)c(=O)n(-c2cc(N3C(=O)C4C[S+]([O-])CCN4C3=O)c(F)cc2Cl)c1=O (stereo not drawn) [Compound 14, Isopropyl 3-[2-chloro-4-fluoro-5-(tetra-hydro-1,3,7-trioxo-1H-imidazo[5,1-c][1,4]-thiazin-2(3H)-yl)phenyl]tetrahydro-5-methyl-2,4,6-trioxo-s-triazine-1(2H)-acetate]
CASSIA OBTUSIFOLIA, L. [1]; Rate 0.125 kg/ha
  CASOB: 2.0
CASSIA OBTUSIFOLIA, L. [1]; Rate 0.250 kg/ha
  CASOB: 2.0
CASSIA OBTUSIFOLIA, L. [1]; Rate 0.500 kg/ha
  CASOB: 4.0
CHENOPODIUM ALBUM, L.; Rate 0.125 kg/ha
  CHEAL: 7.0
CHENOPODIUM ALBUM, L.; Rate 0.250 kg/ha
  CHEAL: 6.0
CHENOPODIUM ALBUM, L.; Rate 0.500 kg/ha
  CHEAL: 9.0
[2]; Rate 0.125 kg/ha
  ECHCG: 0.0
[2]; Rate 0.250 kg/ha
  ECHCG: 0.0
[2]; Rate 0.500 kg/ha
  ECHCG: 0.0
[3]; Rate 0.125 kg/ha
  SETVI: 0.0
[3]; Rate 0.250 kg/ha
  SETVI: 0.0
[3]; Rate 0.500 kg/ha
  SETVI: 1.0
[4]; Rate 0.125 kg/ha
  ORYSAT: 0.0
[4]; Rate 0.250 kg/ha
  ORYSAT: 2.0
[4]; Rate 0.500 kg/ha
  ORYSAT: 4.0
[5]; 0.125 kg/ha
  Herbicide rating (0-9) ECHCG: 0.0
[5]; 0.250 kg/ha
  Herbicide rating (0-9) ECHCG: 0.0
[5]; 0.500 kg/ha
  Herbicide rating (0-9) ECHCG: 0.0
IPOMOEA SPP.; Rate 0.125 kg/ha
  IPOSS: 0.0
IPOMOEA SPP.; Rate 0.250 kg/ha
  IPOSS: 1.0
IPOMOEA SPP.; Rate 0.500 kg/ha
  IPOSS: 3.0
[6]; Rate 0.125 kg/ha
  TRZAWO: 0.0
[6]; Rate 0.250 kg/ha
  TRZAWO: 1.0
[6]; Rate 0.500 kg/ha
  TRZAWO: 2.0
[7]; 0.125 kg/ha
  Herbicide rating (0-9) TRZAWO: 2.0
[7]; 0.250 kg/ha
  Herbicide rating (0-9) TRZAWO: 2.0
[7]; 0.500 kg/ha
  Herbicide rating (0-9) TRZAWO: 2.0
[8]; Rate 0.125 kg/ha
  GLXMAW: 0.0
[8]; Rate 0.250 kg/ha
  GLXMAW: 0.0
[8]; Rate 0.500 kg/ha
  GLXMAW: 0.0
[9]; 0.125 kg/ha
  Herbicide rating (0-9) SETVI: 1.0
[9]; 0.250 kg/ha
  Herbicide rating (0-9) SETVI: 1.0
[9]; 0.500 kg/ha
  Herbicide rating (0-9) SETVI: 1.0
GALIUM APARINE; Rate 0.125 kg/ha
  GALAP: 7.0
GALIUM APARINE; Rate 0.250 kg/ha
  GALAP: 7.0
GALIUM APARINE; Rate 0.500 kg/ha
  GALAP: 9.0
[10]; Rate 0.125 kg/ha
  ABUTH: 0.0
[10]; Rate 0.250 kg/ha
  ABUTH: 0.0
[10]; Rate 0.500 kg/ha
  ABUTH: 4.0
[11]; Rate 0.125 kg/ha
  AMBEL: 0.0
[11]; Rate 0.250 kg/ha
  AMBEL: 2.0
[11]; Rate 0.500 kg/ha
  AMBEL: 3.0
ZEA MAYS L.; Rate 0.125 kg/ha
  ZEAMX: 0.0
ZEA MAYS L.; Rate 0.250 kg/ha
  ZEAMX: 0.0
ZEA MAYS L.; Rate 0.500 kg/ha
  ZEAMX: 1.0
CASSIA OBTUSIFOLIA, L. [12]; 0.125 kg/ha
  Herbicide rating (0-9) CASOB: 5.0
CASSIA OBTUSIFOLIA, L. [12]; 0.250 kg/ha
  Herbicide rating (0-9) CASOB: 5.0
CASSIA OBTUSIFOLIA, L. [12]; 0.500 kg/ha
  Herbicide rating (0-9) CASOB: 5.0

## C#CCn1c(=O)n(CC=C)c(=O)n(-c2cc(N3C(=O)C4=C(CCCC4)C3=O)c(F)cc2Cl)c1=O [Compound 20, N-{5-[3-Allylhexahydro-2,4,6-trioxo-5-(2-propynyl)-s-triazin-1-yl]-4-chloro-2-fluoro-phenyl}-1-cyclohexene-1,2-dicarboximide]
[13]; 0.125 kg/ha
  Herbicide rating (0-9) ORYSAT: 2.0
[13]; 0.250 kg/ha
  Herbicide rating (0-9) ORYSAT: 2.0
[13]; 0.500 kg/ha
  Herbicide rating (0-9) ORYSAT: 2.0
[5]; 0.125 kg/ha
  Herbicide rating (0-9) ECHCG: 0.0
[5]; 0.250 kg/ha
  Herbicide rating (0-9) ECHCG: 0.0
[5]; 0.500 kg/ha
  Herbicide rating (0-9) ECHCG: 0.0
[9]; 0.125 kg/ha
  Herbicide rating (0-9) SETVI: 0.0
[9]; 0.250 kg/ha
  Herbicide rating (0-9) SETVI: 0.0
[9]; 0.500 kg/ha
  Herbicide rating (0-9) SETVI: 0.0
